According to paper PMC7312527 (International Journal of Molecular Sciences, 2020):

Columns and labels:
SH-SY5Y cells [1] = assay: Neuroprotection against rotenone/oligomycin A, pre-incubation (MTT); type: cell-based, human; conditions: R/O mixture, 0.0001 µM
SH-SY5Y cells [2] = assay: Neuroprotection against oxidative stress induced by H2O2 (MTT); type: cell-based, human; conditions: H2O2 100 µM
EeAChE = EeAChE (Electrophorus electricus, UniProt O42275); assay: Kinetic characterization of EeAChE inhibition (Lineweaver–Burk plot); type: biochemical; conditions: inhibitor 25, 75, 100 nM
Experimental: Compound 3e was selected and kinetic studies were performed similar to the enzyme inhibition assay. […]. 0.05–0.5 mM). All processes were assayed in triplicate.

[3] = target: T1, Amyloid β peptide (1–42) (Aβ42) (Homo sapiens, UniProt P05067); assay: Inhibition of self-induced Aβ42 aggregation (thioflavin-T assay); type: biochemical
T1 construct: Amyloid β peptide (1–42) (Aβ42) was purchased from Sigma Aldrich; purchased Sigma Aldrich

[4] = system: histone H3 phosphorylation (Ser10) in human astrocytes; assay: Global histone H3 phosphorylation (Ser10) colorimetric assay; type: cell-based; conditions: for amount of phosphorylated H3Ser10 / phosphorylation of H3Ser10 in comparison to 100% control: 24 h
Experimental: Cell culture: Human astrocytes (HA, Sciencell, USA) were grown in the Astrocyte Cell Medium (Sciencell) supplemented with 2% fetal bovine serum (Sciencell), 1% Astrocyte Cell Growth Supplement (Sciencell), and 1% penicillin/streptomycin solution (Sciencell). Cells were cultured in the incubator at 37 °C and 5% CO2. To start the experiment, cells were seeded at the density of 1.5 × 10^6 cells/well in the flasks and were kept in the incubator (37 °C, 5% CO2) for 24 h. After the incubation period, the medium was removed. Then, the cells were exposed to compound 3c (1 µM and 0.025 µM) or nothing but control medium for 24 h. Then, cells were collected and histone extracts from them were prepared.
The levels of histone H3 phosphorylation (Ser10) were determined using a Global Histone H3 phosphorylation (Ser10) colorimetric assay kit (Epigentek) according to the manufacturer’s instructions. In the assay, the phosphorylated histone H3 at ser10 is captured in the wells of a 96-well plate coated with an anti-phospho histone H3 antibody. The captured phosphorylated histone H3 (Ser10) is detected with a labeled detection antibody followed by a color development reagent. […]

SH-SY5Y cells [5] = assay: Neuroprotection against rotenone/oligomycin A, co-incubation (MTT); type: cell-based, human; conditions: R/O mixture
[6] = target: T2, AChE–BACE-1A protein pair (Homo sapiens, UniProt P22303+P56817); assay: Yeast three-hybrid (Y3H) test and β-galactosidase assay, AChE–BACE-1A; type: cell-based
T2 construct: pGBKT7-hAChE plasmid contained the cDNA fragment encoding for aa 52–577; N-terminal domain (aa 46–457) of BACE1A (GenBank: AF204943.1); host or cells: Saccharomyces cerevisiae Y2HGold (bait) mated with Y187 (prey)
Experimental: The putative induction of interactions between hybrid ligands and five selected proteins was evaluated by the Y3H method. […]. The company maintained cDNA synthesis and cloning of inserts in a proper frame, such as the NdeI/BamHI fragments into the pGBKT7 (AChE) or pGADT7 (A4, BACE1A, MAO B, MAPT) vectors. Moreover, the yeast codon optimization was realized to facilitate the high expression of human recombinant proteins in Saccharomyces cerevisiae. The cDNA encoding for human AChE (GenBank M55040.1) was modified by removing the fragments for a signal peptide (aa 1–51) and the domain responsible for protein tetramerization (aa 578–611). […]
The putative protein–protein interactions between bait (AChE) and the four preys (A4, BACE1A, MAO B, and MAPT) were analyzed by the small-scale mating procedure (5mL) based on the Matchmaker Gold yeast two-hybrid system manual recommendations. […]
The yeast β-galactosidase assay kit (ThermoFisher Scientific, USA) was applied to quantitatively analyze the strength of the hybrid-ligand induced interactions.
To evaluate the β-galactosidase activity in the yeast culture, the yeast β-galactosidase microplate assay protocol (stopped) was used according to the manufacturer’s instructions. […] The optical densities at 660 nm and absorbance at 420 nm were evaluated by (Synergy H1, Biotek). In the quantitative β-galactosidase assay, the hybrid ligand 3c was used. […]

T1 sequence (P05067 672-713 limits assumed): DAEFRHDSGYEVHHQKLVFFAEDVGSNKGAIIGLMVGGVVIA
T2 sequence (P22303 52-577): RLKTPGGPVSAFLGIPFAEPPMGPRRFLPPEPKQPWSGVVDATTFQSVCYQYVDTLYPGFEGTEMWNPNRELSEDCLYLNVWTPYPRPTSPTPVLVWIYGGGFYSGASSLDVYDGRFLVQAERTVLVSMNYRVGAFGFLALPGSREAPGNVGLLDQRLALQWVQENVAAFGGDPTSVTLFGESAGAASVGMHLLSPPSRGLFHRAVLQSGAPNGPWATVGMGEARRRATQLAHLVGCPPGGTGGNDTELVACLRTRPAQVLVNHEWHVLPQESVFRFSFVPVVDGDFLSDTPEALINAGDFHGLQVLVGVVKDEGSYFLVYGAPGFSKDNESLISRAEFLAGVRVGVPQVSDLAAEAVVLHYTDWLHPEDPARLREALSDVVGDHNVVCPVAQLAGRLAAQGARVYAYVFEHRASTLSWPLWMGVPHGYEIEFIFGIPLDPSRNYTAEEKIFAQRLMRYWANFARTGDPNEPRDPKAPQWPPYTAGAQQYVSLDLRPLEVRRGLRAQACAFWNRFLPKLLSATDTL
T2 sequence (P56817 46-457): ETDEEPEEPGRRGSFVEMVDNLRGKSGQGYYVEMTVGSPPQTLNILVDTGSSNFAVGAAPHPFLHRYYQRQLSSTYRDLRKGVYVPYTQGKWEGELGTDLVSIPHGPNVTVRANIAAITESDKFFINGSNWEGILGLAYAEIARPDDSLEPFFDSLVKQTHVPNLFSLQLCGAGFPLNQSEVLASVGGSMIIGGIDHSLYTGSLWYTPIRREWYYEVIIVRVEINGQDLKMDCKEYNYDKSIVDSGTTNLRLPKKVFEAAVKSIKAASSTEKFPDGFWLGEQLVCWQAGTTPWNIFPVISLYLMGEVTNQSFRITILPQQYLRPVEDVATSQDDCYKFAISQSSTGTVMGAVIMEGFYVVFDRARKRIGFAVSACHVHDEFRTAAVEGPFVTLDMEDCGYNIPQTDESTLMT
Chain of EeAChE (O42275 24-633): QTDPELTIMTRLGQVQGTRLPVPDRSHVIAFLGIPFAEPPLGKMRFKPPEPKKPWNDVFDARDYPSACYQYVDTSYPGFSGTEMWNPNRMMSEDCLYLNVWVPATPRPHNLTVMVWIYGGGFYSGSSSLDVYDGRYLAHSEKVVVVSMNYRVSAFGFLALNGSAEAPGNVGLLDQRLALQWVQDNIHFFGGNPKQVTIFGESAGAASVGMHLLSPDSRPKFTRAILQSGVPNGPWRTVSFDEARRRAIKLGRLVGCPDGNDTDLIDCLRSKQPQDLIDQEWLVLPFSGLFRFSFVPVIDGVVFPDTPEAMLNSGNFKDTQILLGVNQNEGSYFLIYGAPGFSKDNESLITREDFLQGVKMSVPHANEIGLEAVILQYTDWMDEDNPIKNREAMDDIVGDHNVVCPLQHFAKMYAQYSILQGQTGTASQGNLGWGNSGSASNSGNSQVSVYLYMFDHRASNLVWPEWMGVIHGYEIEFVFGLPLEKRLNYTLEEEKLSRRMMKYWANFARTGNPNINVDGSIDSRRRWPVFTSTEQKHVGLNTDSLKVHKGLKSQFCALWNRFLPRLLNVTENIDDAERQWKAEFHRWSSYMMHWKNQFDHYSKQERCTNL

Work on `O=C(NCCCCNc1c2c(nc3ccccc13)CCCC2)c1cc(Cl)cc(Cl)c1` [Compound 3c] yielded a neuroprotection (SH-SY5Y cells [1]) of 2.84%, a neuroprotection (SH-SY5Y cells [2]; compound 0.01 µM) of 46.17% and a neuroprotection (SH-SY5Y cells [2]; compound 0.1 µM) of 36.48%. The neuroprotection (SH-SY5Y cells [2]; compound 1 µM) was 0%, the neuroprotection (SH-SY5Y cells [2]; compound 10 µM) was 0% and the “inhibition type of EeAChE” value (EeAChE) was “mixed-type inhibition”. The “Inhibition of Aβ aggregation” value ([3]; 5 µM) was 23%, the inhibition at 5 µM ([3]; 5 µM, read-out: Inhibition of Aβ aggregation) was 23.5% and the inhibition at 10 µM ([3]; 10 µM, read-out: Inhibition of Aβ aggregation) was 24.3%. The inhibition at 25 µM ([3]; 25 µM, read-out: Inhibition of Aβ aggregation) was 25.8%, the inhibition at 50 µM ([3]; 50 µM, read-out: Inhibition of Aβ aggregation) was 26.7% and the “Inhibition of Aβ aggregation” value ([3]; 100 µM) was 32%. For the same compound, the inhibition at 100 µM ([3]; 100 µM, read-out: Inhibition of Aβ aggregation) was 31.8%, the “Inhibition of Aβ42 aggregation” value ([3]; at all concentrations (5–100 µM)) was “more than 23%” and the “amount of phosphorylated H3Ser10” value ([4]; 0.025 µM) was 28.26 µg/mg. For the same compound, the “phosphorylation of H3Ser10 in comparison to 100% control” value ([4]; 0.025 µM) was 105.64%, the DNA damage ([4]; 1 µM and 0.025 µM) was “not observed” and the “amount of phosphorylated H3Ser10” value ([4]; 1 µM) was 29.08 µg/mg. The “phosphorylation of H3Ser10 in comparison to 100% control” value ([4]; 1 µM) was 108.69%, the neuroprotection (SH-SY5Y cells [5]; 0.0001 µM) was 29.10% and the neuroprotection (SH-SY5Y cells [5]; 0.001 µM) was 22.11%. The neuroprotection (SH-SY5Y cells [5]; 0.01 µM) was 12.90%, the neuroprotection (SH-SY5Y cells [5]; 0.1 µM) was 10.99% and the “hybrid ligand-mediated interaction AChE–BACE-1A (colonies on DDO/X/A plates)” value ([6]; 10 µM hybrid ligand) was “interaction between AChE and BACE-1 is mediated by hybrid ligand 3c”. The “activity of β-galactosidase” value ([6]; AChE–BACE-1A, 10 μM ligand, yeast grown 96 h) was 88.69 ± 2.57 units.
